These results are taken from US11111245B2, “Derivatives of N-cycloalkyl/heterocycloalkyl-4-(imidazo[1,2-a]pyridine)pyrimidin-2-amine as therapeutic agents” (Aucentra Therapeutics Pty Ltd, priority 2017, dated 2021).

A value given as a limit tells only on which side of the number the result lay.

As a reminder, the Ki is the equilibrium dissociation constant of an inhibitor or competing ligand from its target. As usually defined, the GI50 is the concentration that inhibits growth by half.

Test [1] has as its target CDK9/T1 (Homo sapiens, UniProt P50750). Nature of the test: ADP Glo Kinase assay CDK9/T1. It counts as biochemical. The settings on record: CDK9T1; read-out: CDK inhibition, Ki (μM) CDK9T1. As to the method: (§1) Eurofins Pharma Discovery or Reaction Biology Corporation Kinase Profiler services were used to measure inhibition of CDKs and other kinases by radiometric assay. Inhibition of CDK4/D1, CDK6/D3 and CDK9/T1 were also determined in-house using ADP Glo Kinase assays (Promega Corporation, Madison, USA). Briefly, the kinase reaction for CDK4/D1 and CDK6/D3 was performed with kinase reaction buffer ([…] Tris base pH 7.5, 20 mM MgCl2, 0.4 mM DTT), 0.1 mg/ml BSA and RB-CTF substrate (retinoblastoma protein 1 C-terminal fraction). For CDK9/CyclinT1, the kinase reaction was performed with standard assay buffer and Kinase Dilution Buffer and RBER-IRStide substrate. Serial dilutions of 1:3 were prepared for test compounds for 10 concentrations (from 10 μM to 0.5 nM). The kinase reactions were started by addition of ATP, incubated for 40 min at 37° C. and then stopped by adding 10 μL of ADP Glo reagent. After incubation at room temperature in the dark for 40 min, 20 μL of kinase detection reagent was added per well and incubated for 40 min. Luminescence was measured using an EnVision Multilabel plate reader (PerkinElmer, Buckinghamshire, UK). Positive and negative controls were performed in the presence and absence of CDK kinases, respectively. Half-maximal inhibition (IC50) values were calculated using a 4-parameter logistic non-linear regression model with Graphpad prism (Version 6.0). Apparent inhibition constants (Ki) values were calculated from Km (ATP) and IC50 values for the respective kinases.
In general terms: ADP-Glo first removes unused ATP, then detects ADP through luciferase.

The subject of test [2] is leukemia cell lines. Nature of the test: Resazurin cell viability assay on leukemia cell lines (72 h growth inhibition, GI50). The settings on record: Homo sapiens, MV4-11 cells. It counts as cell-based. As to the method:
Compounds from Example 1 were subjected to a standard MTT (3-(4,5-dimethylthiazol-2-yl)-2,5-diphenyltetrazolium bromide) and resazurin assays on solid tumour cell lines and leukemia cell lines, respectively, as previously reported (Wang S et al., J Med Chem 47:1662-1675, 2004 and Diab S. et al. CheMedChem 9:962-972, 2014). Compound concentrations required to inhibit 50% of cell growth (GI50) were calculated using non-linear regression analysis.

Test [3] deals with CDK4/D1 (Homo sapiens, UniProt P11802). In words: ADP Glo Kinase assay CDK4/D1. It counts as biochemical. The settings on record: CDK4D1; for Ki: read-out: CDK inhibition, Ki (μM) CDK4D1; for remaining activity at 10 µM: compound at 10 μM, read-out: residual activity (%) at 10 μM CDK4D1. As to the method:
as §1

Test [4] has as its target T1, CDKs and other kinases (Homo sapiens, UniProt P50613).
T1 construct: other: CDK7H; residual activity (%) at 10 μM CDK7H; compound at 10 μM
In words: Radiometric kinase assay (Eurofins Pharma Discovery or Reaction Biology Corporation Kinase Profiler). The test is classed as biochemical. The settings on record: CDK7H; for Ki: read-out: CDK inhibition, Ki (μM) CDK7H; for remaining activity at 10 µM: compound at 10 μM, read-out: residual activity (%) at 10 μM CDK7H. As to the method:
as §1

For test [5], the target named is T2, CDKs and other kinases (Homo sapiens, UniProt P24941).
T2 construct: other: CDK2A; residual activity (%) at 10 μM CDK2A; compound at 10 μM
The test is described as above. It counts as biochemical. The settings on record: CDK2A; for Ki: read-out: CDK inhibition, Ki (μM) CDK2A; for remaining activity at 10 µM: compound at 10 μM, read-out: residual activity (%) at 10 μM CDK2A. The protocol:
as §1

Test [6] has as its target T3, CDKs and other kinases (Homo sapiens, UniProt P06493).
T3 construct: other: CDK1B; residual activity (%) at 10 μM CDK1B; compound at 10 μM
The test is described as above. The test is classed as biochemical. The settings on record: CDK1B; for Ki: read-out: CDK inhibition, Ki (μM) CDK1B; for remaining activity at 10 µM: compound at 10 μM, read-out: residual activity (%) at 10 μM CDK1B. The protocol:
as §1

Sequence of CDK4/D1 (P11802 whole entry): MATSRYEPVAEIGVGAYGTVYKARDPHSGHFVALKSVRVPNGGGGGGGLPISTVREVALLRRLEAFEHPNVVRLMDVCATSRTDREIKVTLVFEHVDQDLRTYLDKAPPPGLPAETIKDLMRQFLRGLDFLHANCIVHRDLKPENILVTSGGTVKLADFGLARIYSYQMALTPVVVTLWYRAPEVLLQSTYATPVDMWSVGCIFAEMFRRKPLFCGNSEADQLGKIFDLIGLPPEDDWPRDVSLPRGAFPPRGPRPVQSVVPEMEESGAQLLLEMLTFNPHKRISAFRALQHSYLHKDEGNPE
Sequence of CDK4/D1 (P24385 whole entry partner): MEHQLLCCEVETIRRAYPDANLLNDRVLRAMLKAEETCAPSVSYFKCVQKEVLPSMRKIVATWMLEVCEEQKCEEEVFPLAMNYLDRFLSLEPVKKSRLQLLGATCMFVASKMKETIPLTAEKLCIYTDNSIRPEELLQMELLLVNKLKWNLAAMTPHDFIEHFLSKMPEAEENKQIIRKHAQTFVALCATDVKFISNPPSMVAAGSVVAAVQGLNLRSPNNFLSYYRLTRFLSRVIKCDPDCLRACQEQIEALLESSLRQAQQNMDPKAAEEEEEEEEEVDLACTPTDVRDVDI
Sequence of CDK9/T1 (P50750 whole entry): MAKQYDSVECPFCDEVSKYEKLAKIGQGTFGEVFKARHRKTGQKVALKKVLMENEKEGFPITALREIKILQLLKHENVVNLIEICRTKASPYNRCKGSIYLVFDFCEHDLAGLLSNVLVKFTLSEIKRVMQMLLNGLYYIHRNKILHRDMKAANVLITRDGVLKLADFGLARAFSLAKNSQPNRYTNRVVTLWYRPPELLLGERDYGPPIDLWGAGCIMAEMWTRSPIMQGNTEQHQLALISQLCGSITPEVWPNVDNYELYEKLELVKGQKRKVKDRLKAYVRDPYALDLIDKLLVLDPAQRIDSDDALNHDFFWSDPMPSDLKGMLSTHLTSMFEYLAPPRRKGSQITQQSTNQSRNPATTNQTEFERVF
Sequence of CDK9/T1 (O60563 whole entry partner): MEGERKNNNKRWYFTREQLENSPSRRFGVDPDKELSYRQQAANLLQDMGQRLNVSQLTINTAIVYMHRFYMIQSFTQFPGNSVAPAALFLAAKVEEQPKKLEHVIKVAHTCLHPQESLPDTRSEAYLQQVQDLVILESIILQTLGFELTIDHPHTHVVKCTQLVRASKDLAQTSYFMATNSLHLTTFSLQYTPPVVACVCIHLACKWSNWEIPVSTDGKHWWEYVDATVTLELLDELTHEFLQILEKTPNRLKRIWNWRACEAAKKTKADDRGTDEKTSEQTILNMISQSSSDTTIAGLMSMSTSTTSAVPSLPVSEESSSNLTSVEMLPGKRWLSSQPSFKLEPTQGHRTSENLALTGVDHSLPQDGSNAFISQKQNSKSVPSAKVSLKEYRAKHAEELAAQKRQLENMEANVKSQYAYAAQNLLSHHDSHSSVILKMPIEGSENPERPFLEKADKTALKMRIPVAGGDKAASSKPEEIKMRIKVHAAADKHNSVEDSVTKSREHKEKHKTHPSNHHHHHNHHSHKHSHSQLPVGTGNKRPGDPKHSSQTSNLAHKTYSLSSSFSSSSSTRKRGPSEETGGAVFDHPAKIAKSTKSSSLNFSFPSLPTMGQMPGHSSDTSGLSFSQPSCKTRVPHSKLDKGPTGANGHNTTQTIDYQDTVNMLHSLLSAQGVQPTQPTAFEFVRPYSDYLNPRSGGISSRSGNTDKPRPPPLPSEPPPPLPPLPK
T1 sequence (P50613 whole entry): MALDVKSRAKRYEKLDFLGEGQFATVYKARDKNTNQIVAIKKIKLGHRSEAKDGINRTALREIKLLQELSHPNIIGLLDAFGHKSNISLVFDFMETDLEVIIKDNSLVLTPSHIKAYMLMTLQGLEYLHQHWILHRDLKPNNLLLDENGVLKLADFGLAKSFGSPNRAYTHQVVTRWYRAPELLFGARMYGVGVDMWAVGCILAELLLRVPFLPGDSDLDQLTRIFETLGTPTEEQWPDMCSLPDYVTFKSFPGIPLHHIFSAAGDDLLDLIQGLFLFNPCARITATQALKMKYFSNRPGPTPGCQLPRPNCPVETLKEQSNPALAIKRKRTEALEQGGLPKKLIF
T3 sequence (P06493 whole entry): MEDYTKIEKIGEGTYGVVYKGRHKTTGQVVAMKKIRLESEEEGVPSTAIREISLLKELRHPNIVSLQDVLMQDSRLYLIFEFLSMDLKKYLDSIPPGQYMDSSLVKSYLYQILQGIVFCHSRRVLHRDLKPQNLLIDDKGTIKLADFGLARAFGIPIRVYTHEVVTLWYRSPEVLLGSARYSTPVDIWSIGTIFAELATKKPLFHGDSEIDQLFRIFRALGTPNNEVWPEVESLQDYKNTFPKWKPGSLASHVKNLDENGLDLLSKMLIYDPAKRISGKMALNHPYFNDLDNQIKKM

In the case of `CN1CCC(Nc2ncc(F)c(-c3cnc4ccccn34)n2)CC1` [Compound 19, 5-Fluoro-4-(imidazo[1,2-a]pyridin-3-yl)-N-(1-methylpiperidin-4-yl)pyrimidin-2-amine], the Ki in test [1] stood at 0.078 µM; in test [3], 0.004 µM; in test [4], 0.27 µM; in test [5] it was 0.527 µM; in test [6], 0.795 µM. The compound further displayed a 50% growth inhibitory concentration (GI50) in test [2] of 0.084 ± 0.008 µM.
For the compound `CC(C)(C)OC(=O)N1CCC(Nc2ncc(F)c(-c3cnc4ccccn34)n2)CC1` [Compound 20, tert-Butyl 4-((5-fluoro-4-(imidazo[1,2-a]pyridin-3-yl)pyrimidin-2-yl)amino)piperidine-1-carboxylate], the Ki was determined as 0.829 µM in test [1] and 1.75 µM in test [4]. In test [2], this compound registered a GI50 of 0.092 ± 0.01 µM. In addition, the results for the remaining activity at 10 µM in test [3], in test [5] and in test [6] were 29%, 54% and 56%, respectively.
As to `Fc1cnc(NC2CCNCC2)nc1-c1cnc2ccccn12` [Compound 21, 5-Fluoro-4-(imidazo[1,2-a]pyridin-3-yl)-N-(piperidin-4-yl)pyrimidin-2-amine], the Ki in test [1] stood at 0.069 µM; in test [4], 0.6 µM; in test [5], 0.321 µM; in test [6] it was 0.479 µM. In test [2], this compound returned a GI50 of 0.003 ± 0.001 µM. Moreover, the remaining activity at 10 µM in test [3] is -11%.
With `COc1cnc(N[C@H]2CC[C@H](N)CC2)nc1-c1cnc2ccc(-c3ccccc3)cn12` [Compound 89, (1r,4r)-N^1-(5-Methoxy-4-(6-phenylimidazo[1,2-a]pyridin-3-yl)pyrimidin-2-yl)cyclohexane-1,4-diamine], the Ki in test [1] came to 0.027 µM. This compound displayed a 50% growth inhibitory concentration (GI50) in test [2] of 0.003 ± 0.001 µM. Moreover, the remaining activity at 10 µM in test [3] was 21%; in test [4], 12%; in test [5] it was 7%; in test [6], 10%.
`Cc1cnc(NC2CCC(N(C)C)CC2)nc1-c1cnc2ccc(Nc3cncc(F)c3)cn12` (centres unmarked) [Compound 120, N^1-(4-(6-((5-Fluoropyridin-3-yl)amino)imidazo[1,2-a]pyridin-3-yl)-5-methylpyrimidin-2-yl)-N^4,N^4-dimethylcyclohexane-1,4-diamine]: the inhibitory constant (Ki) in test [1] was 0.015 µM; in test [3], 0.87 µM. The GI50 in test [2] was determined as 0.023 ± 0.01 µM. Besides, the remaining activity at 10 µM in test [4] amounted to 29%; in test [5] it was 4%; in test [6], 31%.
As to `Cc1cnc(N2CCC3(CCNC3=O)CC2)nc1-c1cnc2ccccn12` [Compound 124, 8-(4-(Imidazo[1,2-a]pyridin-3-yl)-5-methylpyrimidin-2-yl)-2,8-diazaspiro[4.5]decan-1-one], in test [1], the Ki is more than 5 µM. In test [2], this compound showed a GI50 of more than 5 µM. The remaining activity at 10 µM in test [4] came out at 91%; in test [5], 34%; in test [6] it was 87%.
Take `Cc1cnc(N[C@H]2CC[C@H](NS(C)(=O)=O)CC2)nc1-c1cnc2ccc(Nc3cncnc3)cn12` [Compound 126, N-((1r,4r)-4-((5-Methyl-4-(6-(pyrimidin-5-ylamino)imidazo[1,2-a]pyridin-3-yl)pyrimidin-2-yl)amino)cyclohexyl)methanesulfonamide]: the figures for the Ki in test [1] and in test [5] were 0.111 µM and 0.089 µM, respectively. The compound also gave a GI50 in test [2] of more than 5 µM. The figures for the remaining activity at 10 µM in test [3], in test [4] and in test [6] were 14%, 94% and 2%, respectively.
Turning to `Cc1cnc(N[C@H]2CC[C@H](N)CC2)nc1-c1cnc2ccc(Nc3ccccn3)cn12` [Compound 128, (1r,4r)-N^1-(5-Methyl-4-(6-(pyridin-2-ylamino)imidazo [1,2-a]pyridin-3-yl)pyrimidin-2-yl)cyclohexane-1,4-diamine], the Ki is 0.31 µM in test [1] and 0.706 µM in test [5]. In test [2], this compound displayed a GI50 of 0.068 ± 0.006 µM. Further, the figures for the remaining activity at 10 µM in test [3], in test [4] and in test [6] were 38%, 34% and 45%, respectively.
For the compound `COCCN[C@H]1CC[C@@H](Nc2ncc(C)c(-c3cnc4ccc(-c5ccccc5)cn34)n2)CC1` [Compound 130, (1s,4s)-N^1-(2-Methoxyethyl)-N^4-(5-methyl-4-(6-phenylimidazo[1,2-a]pyridin-3-yl)pyrimidin-2-yl) cyclohexane-1,4-diamine], the Ki in test [1] was determined as 1.12 µM. The compound further gave a GI50 in test [2] of 0.172 ± 0.001 µM. Besides, the remaining activity at 10 µM turned out to be 23% in test [3], 40% in test [4], 23% in test [5] and 25% in test [6].
As for `CCN[C@H]1CC[C@H](Nc2ncc(C)c(-c3cnc4ccc(-c5ccccc5)cn34)n2)CC1` [Compound 131, (1r,4r)-N^1-Ethyl-N^4-(5-methyl-4-(6-phenylimidazo[1,2-a]pyridin-3-yl)pyrimidin-2-yl)cyclohexane-1,4-diamine], the inhibition constant Ki in test [1] is 0.32 µM. For the same compound, the GI50 in test [2] was 0.132 ± 0.059 µM. In addition, the remaining activity at 10 µM in test [3] stood at 24%; in test [4], 20%; in test [5], 44%; in test [6], 29%.
Turning to `CCN[C@H]1CC[C@@H](Nc2ncc(C)c(-c3cnc4ccc(-c5ccccc5)cn34)n2)CC1` [Compound 132, (1s,4s)-N^1-ethyl-N^4-(5-Methyl-4-(6-phenylimidazo[1,2-a]pyridin-3-yl)pyrimidin-2-yl)cyclohexane-1,4-diamine], the Ki in test [1] is 1.12 µM. In test [2], this compound displayed a GI50 of 0.012 ± 0.008 µM. Besides, the remaining activity at 10 µM in test [3] was found to be 16%; in test [4], 40%; in test [5], 23%; in test [6] it was 25%.
In the case of `Cc1cnc(N[C@H]2CC[C@H](N3CCC3)CC2)nc1-c1cnc2ccc(-c3ccccc3)cn12` [Compound 135, N-((1r,4r)-4-(Azetidin-1-yl)cyclohexyl)-5-methyl-4-(6-phenylimidazo[1,2-a]pyridin-3-yl)pyrimidin-2-amine], the inhibitory constant (Ki) in test [1] stood at 1.14 µM. Further, the GI50 in test [2] was found to be 0.564 ± 0.047 µM. Further, the remaining activity at 10 µM in test [3] came to 28%; in test [4] it was 13%; in test [5], 57%; in test [6], 61%.
With `Cc1cnc(N[C@H]2CC[C@H](N)CC2)nc1-c1cnc2cc(F)c(-c3ccccc3)cn12` [Compound 159, (1r,4r)-N^1-(4-(7-Fluoro-6-phenylimidazo[1,2-a]pyridin-3-yl)-5-methylpyrimidin-2-yl)cyclohexane-1,4-diamine], the Ki in test [1] was found to be 0.061 µM. Further, the remaining activity at 10 µM is 43% in test [3], 20% in test [4], 11% in test [5] and 31% in test [6].
Regarding `CN1CCC(N[C@H]2CC[C@H](Nc3ncc(F)c(-c4cnc5ccc(-c6ccccc6)cn45)n3)CC2)CC1` [Compound 160, (1r,4r)-N^1-(5-Fluoro-4-(6-phenylimidazo[1,2-a]pyridin-3-yl)pyrimidin-2-yl)-N^4-(1-methylpiperidin-4-yl) cyclohexane-1,4-diamine], the Ki in test [1] is 0.014 µM; in test [4], 0.099 µM. Further, the remaining activity at 10 µM worked out at 0% in test [3], 7% in test [5] and 3% in test [6].
Turning to `Fc1cnc(N[C@H]2CC[C@H](NC3CCOCC3)CC2)nc1-c1cnc2ccc(-c3ccccc3)cn12` [Compound 161, (1r,4r)-N^1-(5-fluoro-4-(6-phenylimidazo[1,2-a]pyridin-3-yl)pyrimidin-2-yl)-N^4-(tetrahydro-2H-pyran-4-yl) cyclohexane-1,4-diamine], the Ki in test [1] is 0.016 µM; in test [4], 0.094 µM; in test [6] it was 0.074 µM. Further, the remaining activity at 10 µM amounted to 3% in test [3] and 6% in test [5].
